The target in assay [1] is T1, VIM-2 (Pseudomonas aeruginosa, UniProt Q9K2N0).
T1 construct: made in house; host or cells: E. coli BL21 (DE3), plasmid pET24a-VIM-2
The assay is described as follows: VIM-2 enzyme-inhibition assay with nitrocefin as substrate (UV-Vis, 482 nm). It counts as biochemical, P. aeruginosa. The protocol:
The VIM-2 was overexpressed and purified as previously described. In brief, E. coli BL21 (DE3) cells were transelected with plasmid pET24a-VIM-2. A 10 mL overnight culture of these cells in lysogeny broth (LB) was used to inoculate of M9 media containing kanamycin (25 μg/mL). The cells were allowed to grow at 37 °C with shaking until the optical density at 600 nm (OD600) reached 0.6–0.8. VIM-2 expression was induced with 1 mM IPTG at 25 °C overnight. Cells were collected by centrifugation and lysed by sonication. The supernatant collected by centrifugation was dialyzed three times at 4 °C and loaded on a Q-Sepharose column. Bound protein was eluted with a 0–500 mM NaCl gradient in 30 mM Tris, pH 7.6. The further purification of crude VIM-2 was run though a G75 column (GE Healthcare, Boston, MA, USA) and eluted with 20 mM Tris, pH 7.6, containing 150 mM NaCl, and 5% β-mercaptoethanol. Enzyme purity was analyzed by SDS-PAGE, and determined the concentration by measuring the absorption at 280 nm (extinction co-efficient: 39,000 M^−1cm^−1) using the Nanodrop 2000 c spectrophotometer (Thermo Scientific, Waltham, MA, USA).
The percent inhibition (inhibition%, enzyme activity without inhibitor minus residual activity with 100 μM inhibitor) and IC50 (the inhibitor concentrations causing 50% decrease of enzyme activity) values were measured using a previously established enzyme-inhibition assay on an Agilent UV8453 UV−Vis spectrophotometer using 60 μM nitrocefin (monitoring at 482 nm) as a substrate. The 2-triazolylthioacetamides 1a–j, 2a–e, and 3a–e were dissolved with DMSO and diluted with ddH2O. The VIM-2 and nitrocefin were prepared with a Tris buffer (30 mM, pH 7.6). The final concentration of DMSO inhibition experiments was below 1%. The IC50 values were determined in triplicate against VIM-2, where the inhibitor concentrations were varied between 0 and 120 µM, and final concentrations VIM-2 was 0.6 nM. The tested VIM-2 and inhibitors were premixed at room temperature (30 mM Tris, pH 7.6), and then the substrate in the same buffer was added to the mixture, the initial rates of nitrocefin hydrolysis were recorded at each inhibitor concentration. The percentage inhibition was calculated by the equation inhibition% = 1 − (Vi/V0) and IC50 values were calculated by plotting the average inhibition% against inhibitor concentration and fitting of the data.
To evaluate 2-triazolylthioactamides, the VIM-2 was expressed and purified as previously described. The steady-state kinetic assays were conducted on an Agilent UV8453 spectrometer using nitrocefin (60 µM) as a substrate and monitoring its hydrolytic product at 482 nm.
IC50 values of 1a–j against VIM-2 were measured in 30 mM Tris, pH 7.6, in which the concentrations of inhibitors were varied between 0 and 120 µM. […] Moreover, clogP values of 1a–j (Table 1), as predicted by the ALOGPS 2.1 program, are in the range 1.88–3.05, which are similar with many marked antibacterial agents.

Assay [2] addresses T1, VIM-2. The assay is described as follows: Binding affinity to VIM-2 by isothermal titration calorimetry (ITC). The arrangement: species or system P. aeruginosa. To be noted: for TΔS / ΔH / Ka / ΔG: ITC, 298 K, Tris-HCl; for TΔS / ΔH / ΔG: pH 7.6; for Ka: pH 7.6, single binding site model; for ΔG: ∆G = ∆H − T∆S. The protocol: Binding affinity measurements were performed by ITC on a Malvern MicroCal-ITC200 at 298 K. The syringe stirring rate was 750 rpm and kept constant. A stock of VIM-2 and inhibitor (1b, 1c, and 1h) were prepared in Tris buffer (30 mM, pH 7.6) with 1% DMSO. The concentration of VIM-2 was 100 μM. Before the injections, the solution of enzyme and inhibitor were degassed by centrifugation (32,583× g, 5 min), respectively. Then, the prepared VIM-2 solution was transferred into the sample cell (210 μL), and the inhibitor (1 mM) in the syringe was titrated into the sample cell by 18 injections (0.5 μL for the first injection and 1.5 μL for the other 17 injections) with 120 s intervals per injection. The heat of dilution for the inhibitor was determined in the control experiment and subtracted from the integrated data before curve fitting. The data were fitted and analyzed with single binding sites using Origin 7.0 software, provided with the instrument.
To investigate the binding affinity of 2-triazolylthioactamides to VIM-2, 1b, 1c, and 1h as enzyme inhibitors were selected based on the inhibitory activity. […] After the best fitting by the single binding site model, the affinity constant (Ka), corresponding dissociation constant (Kd), and thermodynamic parameters (∆H, ΔS, and ΔG) were determined and listed in Table 3.
A general note: In ITC the heat of successive injections is recorded.

The next assay has as its system E. coli DH10B-VIM-2. The assay can be described thus: MIC by broth micro-dilution, cefazolin alone or with inhibitors, E. coli producing VIM-2. The format is cell-based. To be noted: for Decrease in MIC of cefazolin: inhibitor 128 μg/mL. How it is done:
The minimum inhibitory concentration (MIC) of antibiotics, both alone and in the presence of enzyme inhibitors, was determined using the broth micro-dilution method. E. coli DH10B containing plasmid pBCSK-VIM-2 grown in MH medium to OD600 = 0.45 were used as inocula, after an 84-fold dilution to 1 × 10^5 CFU/mL in MH medium. Cefazolin was dissolved in MH medium to prepare 1024, 512, 256, 128, 64, 32, 16, and 8 for E. coli producing VIM-2 stock solutions, respectively. Compounds 1a–j, 2a–e, and 3a–e were dissolved in DMSO and diluted with MH media to prepare 64 µg/mL stock solutions. The 50 μL prepared stock solutions with different cefazolin concentrations were diluted with a 50 μL inhibitor stock solution, then 100 μL inoculum was added sequentially. The final concentration of both the inhibitor and cefazolin were a quarter of the stock solution concentrations.
The ability of 2-triazolylthioactamides to restore the antimicrobial activity of cefazolin against the bacteria producing VIM-2 was investigated by determining the MICs of β-lactams in the presence and absence of inhibitors (16 μg/mL). E. coli DH10B containing plasmid pBCSK-VIM-2 was used to study these inhibitors. […] Although the strains treated with a high dose of 2-triazolylthioacetamides (128 μg/mL) were still resistant, they are promising in the future.
In general terms: Broth dilution looks for growth in wells or tubes with falling amounts of substance.

Assay [3] concerns E. coli cells without VIM-2. The assay can be described thus: Antibacterial activity (MIC) against E. coli cells without VIM-2. It counts as cell-based. To be noted: Escherichia coli, read-out: MIC of cefazolin.

In the case of `O=C(CSc1nnc(-c2ccccc2C(=O)O)[nH]1)Nc1ccccc1` [Compound 1a], the IC50 (commonly the point on the concentration scale where inhibition reaches its midpoint) at VIM-2 [1] amounted to 40.8 ± 0.3 µM.
Regarding `O=C(CSc1nnc(-c2ccccc2C(=O)O)[nH]1)Nc1nc2ccccc2[nH]1` [Compound 1b], at VIM-2 [2], the Kd – broadly, the free concentration of one partner at which half of the binding sites on the other are occupied at equilibrium, for simple one-to-one binding – stood at 8.62 µM; the TΔS came out at 4.26 kcal/mol; the ΔH is -2.66 kcal/mol; the Ka amounted to 116000 M⁻¹. Besides, on VIM-2 [2], the ΔG is -6.92 kcal/mol. The compound also displayed an IC50 against VIM-2 [1] of 58.6 ± 0.1 µM. Also, in the assay with E. coli DH10B-VIM-2, the “Decrease in MIC of cefazolin” value was 16 fold.
At VIM-2 [2], `O=C(CSc1nnc(-c2ccccc2C(=O)O)[nH]1)Nc1nc2ccccc2s1` [Compound 1c] gave a Kd of 7.94 µM, a TΔS of 5.34 kcal/mol, a ΔH of -1.61 kcal/mol and a Ka of 126000 M⁻¹. The compound also came in with a ΔG on VIM-2 [2] of -6.95 kcal/mol. On VIM-2 [1], this compound showed a half-maximal inhibitory concentration (IC50) of 49.1 ± 0.1 µM. Also, the “Decrease in MIC of cefazolin” value in the assay on E. coli DH10B-VIM-2 came to 16 fold.
`O=C(CSc1nnc(-c2ccccc2C(=O)O)[nH]1)Nc1ccc(Cl)cc1` [Compound 1d]: on VIM-2 [1], the 50% inhibitory concentration (IC50) is 52.2 ± 0.5 µM.
Still for that read-out and setting: as for `O=C(CSc1nnc(-c2ccccc2C(=O)O)[nH]1)Nc1ccc([N+](=O)[O-])cc1` [Compound 1e], the figure is 38.2 ± 0.3 µM.
`O=C(CSc1nnc(-c2ccccc2C(=O)O)[nH]1)NCc1ccccc1` [Compound 1f] came in with a concentration for half-maximal inhibition (IC50) at VIM-2 [1] of 45.8 ± 0.2 µM.
`O=C(CSc1nnc(-c2ccccc2C(=O)O)[nH]1)Nc1ccccc1Cl` [Compound 1g]: on VIM-2 [1], the IC50 was 31.4 ± 0.4 µM. In addition, the “Decrease in MIC of cefazolin” value with E. coli DH10B-VIM-2 is 32 fold.
Turning to `O=C(CSc1nnc(-c2ccccc2C(=O)O)[nH]1)Nc1cccc(Cl)c1` [Compound 1h], on VIM-2 [2], the dissociation constant Kd amounted to 6.41 µM, the TΔS was 1.98 kcal/mol, the ΔH was -5.10 kcal/mol and the Ka worked out at 156000 M⁻¹. Moreover, the ΔG on VIM-2 [2] was -7.08 kcal/mol. This compound also gave an IC50 at VIM-2 [1] of 20.6 ± 0.1 µM. The “Decrease in MIC of cefazolin” value in the assay on E. coli DH10B-VIM-2 is listed as 32 fold.
On to `O=C(CSc1nnc(-c2ccccc2C(=O)O)[nH]1)Nc1ccccc1[N+](=O)[O-]` [Compound 1i], for which, on VIM-2 [1], the concentration for half-maximal inhibition (IC50) is 45.2 ± 0.1 µM.
The compound `O=C(CSc1nnc(-c2ccccc2C(=O)O)[nH]1)Nc1cccc([N+](=O)[O-])c1` [Compound 1j] returned a half-inhibitory concentration (IC50) against VIM-2 [1] of 57.6 ± 0.4 µM.
As to `Cc1nnc(SCC2=C(C(=O)O)N3C(=O)[C@@H](NC(=O)Cn4cnnn4)[C@H]3SC2)s1` [cefazolin, reference compound], the minimum inhibitory concentration (MIC) – broadly, the least concentration at which growth counts as inhibited – with E. coli DH10B-VIM-2 (Escherichia coli, DH10BVIM2, read-out: MIC of cefazolin) came out at 128 µg/mL; in assay [3], 1 µg/mL.

The values are drawn from PMC7022493, “Kinetic, Thermodynamic, and Crystallographic Studies of 2-Triazolylthioacetamides as Verona Integron-Encoded Metallo-β-Lactamase 2 (VIM-2) Inhibitor” (Biomolecules, 2020).
